{"source": "patent US11191749B2", "about": "“Pharmaceutical compositions for combination therapy” (GENFIT, priority 2017, dated 2021)", "test_system": "TGFβ1-induced hHSC (α-SMA)", "assay": "α-SMA ELISA in TGFβ1-induced human primary hepatic stellate cells (single agents and combination matrix, EOB/EOHSA)", "assay_type": "cell-based", "details": "1 h preincubation, TGFβ1 1 ng/ml, 48 h, FIG. 1", "protocol": "After 48 hours of incubation, the expression of α-SMA was measured by ELISA. […] Data are presented as mean (triplicates)±standard deviation (SD).\nCombinations were tested in a dose-response matrix format and analyzed according to the excess over Bliss (EOB) additivism model. […] Data are presented as mean of quadruplicates. (B) EOB scores were calculated as described in Materials and Methods. […] Data are presented as mean (quadruplicates)±standard deviation (SD).\nCombinations were tested in a dose-response matrix format and analyzed according to the excess over Bliss (EOB) additivism model. […] Data are presented as mean (quadruplicates)±standard deviation (SD).\nThen, 2-fold and 4-fold higher and lower concentrations were selected.\nThe human primary hepatic stellate cells (hHSC) (Innoprot) were cultured under standard conditions, as described above.", "data": [{"smiles": "O=C(Nc1ncc([N+](=O)[O-])s1)c1ccccc1O", "note": "[TZ, tizoxanide]", "values": [{"measurement": "antifibrotic activity (α-SMA) as single agent", "value": "profile similar to the parent drug"}]}]}
